Experimental data: ChEMBL document CHEMBL1201862, “PubChem BioAssay data set” (2004)
Activity calls are given as the source filed them.

Tests used:
BJ [1] = test: BJ-TERT-LT-ST fibroblast viability loss – cell-based, RAS-independent, luminescence, dose response (AID 1935); type: functional; settings: Homo sapiens;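 further: BJ fibroblasts immortalized with TERT plus LT and ST oncogenes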
BJ [2] = test: cells; type: functional, cell-based; settings: Homo sapiens
BJ [3] = test: BJ-TERT fibroblast viability loss – cell-based, RAS-independent, luminescence, dose response (AID 1933); type: functional; settings: Homo sapiens
[4] = fluconazole-exposed Candida albicans growth modulators – fluorescence, retest, confirmation (AID 2467); type: functional, cell-based
[5] = NIH-3T3 fibroblast cytotoxicity, dose response, cytotoxicity control, cell-based, fluorescence, Alamar Blue, secondary assay (AID 2327); type: functional;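 further: NIH-3T3 mouse fibroblasts cultured with fluconazole at 8 µg/mL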
[6] = DRD fibroblast viability loss – cell-based, non-viral oncogenic, luminescence, dose response (AID 1934); type: functional; settings: Homo sapiens
[7] = HEK-293T viability loss after treatment – luminescence, T-cell screen hits, cytotoxicity control for TCR NF-kB inhibitor project, dose response (AID 489026); type: functional, cell-based;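 further: cells exposed to compound about 14 hours before the viability readout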
[8] = A cytotoxicity screen of small molecule inhibitors of the PhoP region in Salmonella typhi identified in the primary screen. [Related pubchem assays: 1850, 1864, 1985 ]; type: functional
[9] = molecular target: T1, RNA-binding protein pos-1 (Caenorhabditis elegans, UniProt G5EF15); test: disruptors of C. elegans POS-1 RNA interaction – biochemical, fluorescence polarization, dose response (AID 1964);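 further: purified POS-1 fused to maltose binding protein made in E. coli; potency of compounds blocking POS-1 binding to fluorescent RNA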
T1 sequence (G5EF15 whole entry): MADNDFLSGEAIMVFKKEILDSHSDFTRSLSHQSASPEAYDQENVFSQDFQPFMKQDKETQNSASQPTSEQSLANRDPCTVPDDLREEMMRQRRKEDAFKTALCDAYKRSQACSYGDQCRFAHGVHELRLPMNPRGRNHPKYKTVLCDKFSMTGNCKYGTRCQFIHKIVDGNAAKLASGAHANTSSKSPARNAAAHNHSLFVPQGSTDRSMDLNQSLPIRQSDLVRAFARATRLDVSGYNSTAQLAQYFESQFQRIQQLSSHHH

Prothrombin = Prothrombin (Homo sapiens, UniProt P00734); test: Thrombin 1536 HTS Dose Response Confirmation. [Related pubchem assays: 1046 (Thrombin 1536 HTS; hits were confirmed in this assay)]; type: functional
Aminopeptidase N = molecular target: T2, Aminopeptidase N (Plasmodium falciparum FcB1/Columbia, UniProt O96935); test: malaria alanyl aminopeptidase activity blockers – biochemical, fluorogenic H-Leu-NHMec substrate, 1536-well (AID 1445); set-up: species or system Plasmodium falciparum 3D7, 3D7
T2 sequence (O96935 whole entry): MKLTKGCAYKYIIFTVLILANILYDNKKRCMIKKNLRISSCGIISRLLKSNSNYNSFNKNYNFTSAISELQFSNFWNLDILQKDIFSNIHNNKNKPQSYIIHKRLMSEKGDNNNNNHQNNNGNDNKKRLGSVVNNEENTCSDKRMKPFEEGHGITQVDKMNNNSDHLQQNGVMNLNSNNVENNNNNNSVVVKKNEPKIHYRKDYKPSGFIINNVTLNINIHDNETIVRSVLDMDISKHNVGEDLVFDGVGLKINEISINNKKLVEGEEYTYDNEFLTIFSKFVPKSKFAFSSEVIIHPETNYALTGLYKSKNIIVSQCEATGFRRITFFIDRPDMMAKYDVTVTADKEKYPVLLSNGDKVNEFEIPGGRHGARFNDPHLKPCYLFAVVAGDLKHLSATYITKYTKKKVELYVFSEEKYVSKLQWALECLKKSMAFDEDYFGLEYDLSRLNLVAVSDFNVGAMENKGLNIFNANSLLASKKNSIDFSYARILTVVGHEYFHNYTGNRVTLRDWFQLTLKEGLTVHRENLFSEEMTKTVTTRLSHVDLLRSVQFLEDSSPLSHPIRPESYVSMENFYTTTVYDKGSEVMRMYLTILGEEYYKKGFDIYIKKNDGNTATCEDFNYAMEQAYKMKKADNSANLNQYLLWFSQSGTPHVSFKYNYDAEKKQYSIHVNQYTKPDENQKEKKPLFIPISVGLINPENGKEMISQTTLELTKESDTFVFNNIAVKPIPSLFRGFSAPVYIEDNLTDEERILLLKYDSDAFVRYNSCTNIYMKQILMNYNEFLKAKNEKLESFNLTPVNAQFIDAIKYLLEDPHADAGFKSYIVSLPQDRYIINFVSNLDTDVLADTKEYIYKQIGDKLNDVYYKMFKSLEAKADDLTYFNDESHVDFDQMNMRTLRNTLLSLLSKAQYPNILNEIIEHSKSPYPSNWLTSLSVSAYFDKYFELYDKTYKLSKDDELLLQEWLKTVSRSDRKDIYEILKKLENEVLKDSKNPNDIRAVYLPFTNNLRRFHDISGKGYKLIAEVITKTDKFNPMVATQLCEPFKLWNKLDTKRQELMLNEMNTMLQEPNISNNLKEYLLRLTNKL

[10] = molecular target: T3, Zinc finger protein mex-5 (Caenorhabditis elegans, UniProt Q9XUB2); test: potency of MEX-5 RNA-binding blockers – biochemical, C. elegans, fluorescence polarization, dose response (AID 1960)
T3 sequence (Q9XUB2 whole entry): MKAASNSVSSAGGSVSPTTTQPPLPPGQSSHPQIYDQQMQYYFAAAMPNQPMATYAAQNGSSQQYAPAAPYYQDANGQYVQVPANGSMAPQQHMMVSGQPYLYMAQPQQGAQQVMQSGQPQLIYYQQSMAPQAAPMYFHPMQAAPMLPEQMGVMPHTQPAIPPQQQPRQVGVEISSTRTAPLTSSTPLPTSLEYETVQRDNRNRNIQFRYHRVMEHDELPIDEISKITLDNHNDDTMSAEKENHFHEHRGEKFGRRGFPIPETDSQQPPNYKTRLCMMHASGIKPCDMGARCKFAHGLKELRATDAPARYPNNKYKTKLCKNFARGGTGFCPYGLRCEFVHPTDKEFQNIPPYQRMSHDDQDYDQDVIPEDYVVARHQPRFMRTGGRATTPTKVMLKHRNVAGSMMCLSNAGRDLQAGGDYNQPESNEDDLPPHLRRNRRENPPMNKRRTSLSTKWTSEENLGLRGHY

Cytochrome P450 2C9 = Cytochrome P450 2C9 (Homo sapiens, UniProt P11712)
Sequence of Cytochrome P450 2C9 (P11712 whole entry): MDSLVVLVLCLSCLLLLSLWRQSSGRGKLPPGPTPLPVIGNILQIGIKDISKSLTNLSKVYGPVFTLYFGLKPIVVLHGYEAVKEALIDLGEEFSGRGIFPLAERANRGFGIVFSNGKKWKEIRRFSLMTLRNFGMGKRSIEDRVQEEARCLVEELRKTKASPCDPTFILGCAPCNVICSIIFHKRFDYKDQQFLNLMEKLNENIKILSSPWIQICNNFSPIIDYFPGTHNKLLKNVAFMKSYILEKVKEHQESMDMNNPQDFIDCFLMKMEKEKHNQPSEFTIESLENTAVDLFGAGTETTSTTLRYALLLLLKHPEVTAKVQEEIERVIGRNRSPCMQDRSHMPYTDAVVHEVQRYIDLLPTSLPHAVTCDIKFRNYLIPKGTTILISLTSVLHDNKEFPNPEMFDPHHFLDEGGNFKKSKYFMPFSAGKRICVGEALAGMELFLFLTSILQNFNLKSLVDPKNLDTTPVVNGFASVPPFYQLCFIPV

[11] = A Cell Based Secondary Assay To Explore Cytotoxicity of Compounds that Sensitize Mycobacterium Tuberculosis to Beta-Lactam Antibiotics.; type: functional
[12] = molecular target: T4, Heat shock factor protein 1 (Mus musculus, UniProt P38532); test: decrease of HSF1-responsive luciferase luminescence – cell-based, NIH3T3, dose retest, confirmation (AID 2382); type: functional;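 further: NIH3T3 fibroblasts with HSF1-driven luciferase reporter stressed by proteasome inhibitor MG132; luminescence from HSF1-driven luciferase expression after 8 hours of MG132 stress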
T4 sequence (P38532 whole entry): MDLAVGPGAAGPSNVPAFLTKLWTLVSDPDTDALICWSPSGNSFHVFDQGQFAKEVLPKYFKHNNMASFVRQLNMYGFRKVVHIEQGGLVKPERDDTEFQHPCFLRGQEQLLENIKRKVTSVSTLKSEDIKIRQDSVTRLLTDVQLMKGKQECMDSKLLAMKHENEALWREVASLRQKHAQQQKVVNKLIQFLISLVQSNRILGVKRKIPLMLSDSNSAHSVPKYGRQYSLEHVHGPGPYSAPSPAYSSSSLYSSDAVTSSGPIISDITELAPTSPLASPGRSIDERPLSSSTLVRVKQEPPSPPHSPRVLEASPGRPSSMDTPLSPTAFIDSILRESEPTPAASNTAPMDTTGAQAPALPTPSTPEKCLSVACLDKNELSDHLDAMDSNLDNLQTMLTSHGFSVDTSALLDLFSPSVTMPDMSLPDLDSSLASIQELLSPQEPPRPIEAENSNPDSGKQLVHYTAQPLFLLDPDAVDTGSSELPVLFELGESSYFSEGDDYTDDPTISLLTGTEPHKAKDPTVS

[13] = molecular target: T5, Polyadenylate-binding protein 1 (Homo sapiens, UniProt P11940); test: MLLE domain peptide-binding blockers, IC50 – biochemical, fluorescence polarization, FITC-PAM2 peptide, dose response (AID 602259); type: functional; settings: read-out: IC50_Mean
T5 sequence (P11940 whole entry, the tested form may be a part): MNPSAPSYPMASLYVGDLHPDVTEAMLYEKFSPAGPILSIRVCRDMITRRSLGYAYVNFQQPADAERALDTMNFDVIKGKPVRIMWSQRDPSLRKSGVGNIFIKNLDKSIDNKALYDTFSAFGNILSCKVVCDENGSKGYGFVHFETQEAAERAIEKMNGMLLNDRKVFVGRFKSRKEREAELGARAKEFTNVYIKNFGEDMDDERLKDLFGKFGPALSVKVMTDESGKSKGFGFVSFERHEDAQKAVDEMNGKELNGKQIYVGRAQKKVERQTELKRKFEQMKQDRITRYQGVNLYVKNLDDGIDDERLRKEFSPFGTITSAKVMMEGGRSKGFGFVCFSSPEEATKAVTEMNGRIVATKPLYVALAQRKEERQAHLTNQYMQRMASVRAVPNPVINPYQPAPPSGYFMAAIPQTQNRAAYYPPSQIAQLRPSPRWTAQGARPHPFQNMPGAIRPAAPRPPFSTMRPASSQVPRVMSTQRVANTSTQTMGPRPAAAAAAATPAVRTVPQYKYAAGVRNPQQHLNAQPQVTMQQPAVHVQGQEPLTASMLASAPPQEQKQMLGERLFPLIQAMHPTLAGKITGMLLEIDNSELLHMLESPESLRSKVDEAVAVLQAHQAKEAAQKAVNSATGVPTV

[14] = molecular target: T5, Polyadenylate-binding protein 1; test: MLLE binding blockers, Cy5 peptide tracer – biochemical, fluorescence polarization, Cy5-PAM2 peptide, secondary, miRNA deadenylation inhibitor project, dose response (AID 602260); type: functional; settings: read-out: IC50_Mean
Nonstructural protein 1 = Nonstructural protein 1 (Influenza A virus, UniProt Q194T2); type: functional, Influenza A virus (A/California/07/2009(H1N1))
Sequence of Nonstructural protein 1 (Q194T2 whole entry): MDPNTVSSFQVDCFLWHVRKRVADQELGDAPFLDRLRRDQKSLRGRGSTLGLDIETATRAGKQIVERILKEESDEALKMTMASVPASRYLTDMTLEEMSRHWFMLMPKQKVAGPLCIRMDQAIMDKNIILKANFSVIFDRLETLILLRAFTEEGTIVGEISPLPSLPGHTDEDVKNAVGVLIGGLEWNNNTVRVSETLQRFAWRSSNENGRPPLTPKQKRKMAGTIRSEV

Protein skinhead-1 = molecular target: T6, Protein skinhead-1 (Caenorhabditis elegans, UniProt P34707); type: functional
T6 sequence (P34707 whole entry): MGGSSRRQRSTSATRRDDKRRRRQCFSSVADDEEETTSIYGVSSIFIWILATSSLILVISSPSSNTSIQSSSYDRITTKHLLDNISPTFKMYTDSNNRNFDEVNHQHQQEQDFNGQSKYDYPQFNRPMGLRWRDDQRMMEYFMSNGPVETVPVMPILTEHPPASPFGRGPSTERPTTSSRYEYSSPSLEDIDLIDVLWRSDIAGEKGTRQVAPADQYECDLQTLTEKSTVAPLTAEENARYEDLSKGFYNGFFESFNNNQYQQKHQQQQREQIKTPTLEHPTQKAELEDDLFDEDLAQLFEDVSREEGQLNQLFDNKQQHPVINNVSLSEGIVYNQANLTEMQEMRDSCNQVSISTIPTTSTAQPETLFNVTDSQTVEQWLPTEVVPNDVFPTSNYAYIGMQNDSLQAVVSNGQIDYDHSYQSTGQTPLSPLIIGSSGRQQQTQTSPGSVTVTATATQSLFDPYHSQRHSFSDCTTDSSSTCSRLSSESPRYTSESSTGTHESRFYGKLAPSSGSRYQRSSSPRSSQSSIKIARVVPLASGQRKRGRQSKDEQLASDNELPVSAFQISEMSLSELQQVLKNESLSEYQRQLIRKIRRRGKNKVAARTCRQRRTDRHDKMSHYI

[15] = molecular target: T7, Ubiquitin-conjugating enzyme E2 N (Homo sapiens, UniProt P61088); type: functional;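 further: Dose-response confirmation in a TR-FRET assay detecting UBC13-driven polyubiquitin chain formation, inhibition measured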
T7 sequence (P61088 whole entry): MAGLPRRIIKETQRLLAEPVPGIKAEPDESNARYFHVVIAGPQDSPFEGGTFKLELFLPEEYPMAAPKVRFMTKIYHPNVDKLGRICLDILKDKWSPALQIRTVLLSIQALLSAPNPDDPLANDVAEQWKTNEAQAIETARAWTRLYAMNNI

[16] = molecular target: T8, DNA repair protein RAD52 homolog (Homo sapiens, UniProt P43351); type: functional, biochemical
T8 sequence (P43351 whole entry): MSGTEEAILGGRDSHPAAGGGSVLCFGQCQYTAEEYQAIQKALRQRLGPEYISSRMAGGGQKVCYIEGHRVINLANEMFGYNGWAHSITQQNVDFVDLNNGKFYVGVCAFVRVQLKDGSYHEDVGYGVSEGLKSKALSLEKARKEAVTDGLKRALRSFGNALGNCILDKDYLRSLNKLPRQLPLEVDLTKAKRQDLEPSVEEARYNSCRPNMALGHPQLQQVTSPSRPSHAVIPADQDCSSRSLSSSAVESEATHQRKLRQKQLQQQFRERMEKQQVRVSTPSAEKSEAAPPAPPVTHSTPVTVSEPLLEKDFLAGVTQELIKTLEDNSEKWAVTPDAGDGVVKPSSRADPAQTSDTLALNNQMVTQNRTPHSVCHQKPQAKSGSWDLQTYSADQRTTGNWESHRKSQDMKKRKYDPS

Cytochrome P450 3A4 = Cytochrome P450 3A4 (Homo sapiens, UniProt P08684);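 further: CYP3A4 tested as one member of a cytochrome P450 panel screen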
Sequence of Cytochrome P450 3A4 (P08684 whole entry): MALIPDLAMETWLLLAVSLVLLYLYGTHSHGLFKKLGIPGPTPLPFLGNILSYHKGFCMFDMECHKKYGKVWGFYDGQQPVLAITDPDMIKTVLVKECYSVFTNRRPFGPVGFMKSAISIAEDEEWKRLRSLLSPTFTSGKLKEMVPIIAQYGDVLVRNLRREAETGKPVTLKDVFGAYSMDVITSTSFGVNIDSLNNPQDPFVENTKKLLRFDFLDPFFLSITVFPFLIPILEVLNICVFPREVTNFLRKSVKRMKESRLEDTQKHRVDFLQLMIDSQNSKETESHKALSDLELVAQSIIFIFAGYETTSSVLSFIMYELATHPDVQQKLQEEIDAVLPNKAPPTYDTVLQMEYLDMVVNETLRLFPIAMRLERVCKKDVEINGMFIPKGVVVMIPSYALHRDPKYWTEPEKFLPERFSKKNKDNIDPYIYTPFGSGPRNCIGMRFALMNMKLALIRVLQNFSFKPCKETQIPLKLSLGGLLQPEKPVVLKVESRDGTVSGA

COc1ccc(-[n+]2c(-c3ccccc3)cc(-c3ccc(C)cc3)cc2-c2ccccc2)cc1.[O-][Cl+3]([O-])([O-])[O-]
EC50 (BJ [1]): 19.8 µM (active) | EC50 (BJ [2]): 5 µM (active) | EC50 (BJ [3]): 3.39 µM (active) | EC50 [4]: 0.037 µM (active) | EC50 [5]: 7.59 µM (active) | EC50 [6]: 10 µM (inconclusive) | IC50 [7]: > 80 µM (inactive)

O=C(O)Cn1c(=O)c2c3c(sc2n(Cc2ccccc2F)c1=O)CCCC3
EC50 [8]: > 50 µM (active)

O=C1NC(=O)N(CCc2ccccc2)C(=O)/C1=C/NNC(=O)c1ccncc1
EC50 [9]: > 300 µM (not active) | IC50 (Prothrombin): > 50 µM (not active) | IC50 (Aminopeptidase N): 38.4 µM (active) | EC50 [10]: > 300 µM (not active)

CCOc1cc(C(c2c(C)n[nH]c2O)c2c(C)n[nH]c2O)cc([N+](=O)[O-])c1O
EC50 [8]: > 50 µM (active)

COc1ccc(OC[C@@H](CO)OC)cc1
AC50 (Cytochrome P450 2C9): inconclusive

COc1ccc2nc(SCC(=O)N3CCCCCC3)c(C#N)cc2c1
CC50 [11]: > 40 µM (active)

COc1cccc(C(=O)Nc2cccc(SC)c2)c1
EC50 [8]: > 50 µM (active)

COc1ccc(CNS(=O)(=O)c2cc(-c3cc(C)no3)ccc2C(C)C)cc1
IC50 [7]: > 80 µM (inactive)

O=C(NCC(c1ccco1)N1CCc2ccccc21)c1ccc([N+](=O)[O-])cc1 (configuration not stated)
CC50 [11]: > 40 µM (active)

Cc1ccc(Cn2c(C(C)Nc3nc(-c4ccc(Cl)cc4)cs3)nc3cc(C(=O)NCCCO)ccc32)cc1 (configuration not stated)
CC50 [11]: > 40 µM (active)

Nc1ncnc2c1ncn2[C@@H]1CCCO1
AC50 (Cytochrome P450 2C9): inconclusive

Cc1ccc(CN2C3=NCCN3c3ccccc32)cc1
EC50 [8]: > 50 µM (active)

O=C(Oc1c(-c2ccccc2Cl)oc2ccccc2c1=O)c1ccc(Cl)cc1
CC50 [11]: > 40 µM (active) | EC50 [12]: > 195 µM (not active)

Cc1cc2cc(CN=C(S)Nc3ccc(OC(F)(F)F)cc3)ccc2n1C
IC50 [13]: > 66 µM (inactive) | IC50 [14]: > 66 µM (inactive) | IC50 (Nonstructural protein 1): > 100 µM (active) | IC50 (Protein skinhead-1): > 100 µM (inactive)

Cc1ccc(CNC(=O)C2CC(c3ccccc3[N+](=O)[O-])=NO2)cc1 (configuration not stated)
AC50 (Cytochrome P450 2C9): inconclusive

COc1ccccc1CNCCc1ccc(F)cc1
EC50 [8]: > 50 µM (active)

CN1CCC(CN)(N2CCN(c3ccccc3)CC2)CC1
IC50 [15]: > 20 µM (inactive) | AC50 [16]: 23.1 µM (active) | IC50 (Nonstructural protein 1): > 100 µM (active)

COc1ccc(OC)c(C(=O)CN2C(=O)NC(C)(c3ccccc3)C2=O)c1 (configuration not stated)
AC50 (Cytochrome P450 2C9): inconclusive

CCOc1cccc(/C=N/Nc2nc(N3CCCC3)nc(N3CCCC3)n2)c1O
CC50 [11]: > 40 µM (active)

Cc1c(/C=N/NC(=O)c2ccc3c(c2)OCO3)cnn1C
AC50 (Cytochrome P450 3A4): 22.4 µM (inconclusive) | EC50 [8]: > 50 µM (active)

O=C(/C=C/c1cccnc1)c1ccc(O)cc1
CC50 [11]: 17.5 µM (active)
